Paper PMC12349723, “Computationally accelerated identification of P-glycoprotein inhibitors” (PLOS One, 2025)

What was measured:
[1] = SWISS-ADME computational analysis of chemical properties; settings: predicted aqueous solubility compared to that observed in the laboratory
Description: Identifying P-gp inhibitors that are not transport substrates remains inherently challenging. To that end, computational tools such as the SWISS-ADME server attempt to use a molecule’s unique chemical and structural characteristics to predict whether it is likely to be a P-gp transport substrate. Our LC-MS/MS assays allowed us to retroactively test the validity of predictions from SWISS-ADME. […] Alternative identifiers for the molecules identified in this study are shown in S7 Table.
S1 Table. Known P-gp Inhibitors and Predicted Chemical Properties. A non-exhaustive list of known P-gp inhibitors and their selected chemical properties ^[64, 65]. Clinical trial outcomes were adapted from ^[10, 11]. Compounds were evaluated using the SWISS-ADME server ^[54]. […] “Predicted P-gp Substrate” - predicted by SWISS-ADME to be a transport substrate of P-gp. “Known P-gp Substrate” – In addition to being P-gp inhibitors, these molecules are: known transport substrates of P-gp, known non-transport substrates of P-gp, unknown whether it is a transport substrate of P-gp ^[66-68]. If the molecule is designated in a specific generation of P-gp inhibitors - First Generation P-gp inhibitors, Second generation P-gp inhibitors, Third generation P-gp inhibitors.

[2] = Resazurin cell viability pre-screen in DU145-TXR cells with or without PTX; format: cell-based; settings: human, mean of two experiments in triplicate, read-out: Viability, 15 µM compound alone
Procedure: Culture of the DU145, DU145-TXR, and HFL1 cell lines was performed as described in [8]. Culture of the A2780 and A2780-ADR cell lines was performed as described in [9]. MTT assays were performed as described in [8] with minor modifications. LC-MS/MS accumulation assays were performed as described in {Nanayakkara, 2018 #173} [9] with some modifications. […] The inhibitor concentration was lowered to 15 µM here, as the goal of the study was to identify compounds that were effective in reversing MDR at low concentrations, and to determine if the expanded virtual-assisted methods improved on our first-draft attempt. Compounds 56–98 were pre-screened using Resazurin cell viability assays: cells were incubated with 15 µM compound with or without 500 nM PTX for 48 hours, after which cell survival was assessed similar to [39]. Data represent the mean of two separate experiments, with n = 3 samples per experiment (n = 6 total) (S4 Table). The top performing compounds from this initial screen were re-tested with MTT viability assays against DU145-TXR cells, as described below.
S4 Table. Pre-screening of compounds 56 – 98 against DU145-TXR cells with resazurin assays. DU145-TXR cells were incubated with 15 µM compound with or without 500nM PTX for 48 hrs; survival was subsequently determined with the Resazurin viability assay ^[37]. […] Percent re-sensitization is defined as the percent change in viability between cells treated with compound and PTX, versus cells treated with PTX alone. In some instances, the assay reported an increase in viability with compound + PTX, and no percent sensitization is reported. ‘Follow-up Testing’ compounds were re-assessed with MTT assays (Figure 1). Compounds 59 and 89 (*, ‘Follow-up Testing’) were used as negative controls in follow-up MTT assays to test for consistency of results, e.g. to confirm that molecules eliminated in Resazurin assays were justifiably eliminated from later screening with MTT assays.

[3] = molecular target: T1, P-gp (Homo sapiens, UniProt P08183); experiment: LC-MS/MS intracellular accumulation assay with or without tariquidar (P-gp transport substrate test) in DU145-TXR cells; format: in vitro ADME; settings: for P-gp transport substrate assessment: 5 µM compound with or without 500 nM tariquidar, LC-MS/MS; for Significance of accumulation with tariquidar, Trial 1 / Significance of accumulation with tariquidar, Trial 2: significant difference = likely P-gp transport substrate
T1 construct: The MDR, P-gp overexpressing DU145-TXR cells were maintained under positive selection pressure; endogenous in cells; host or cells: DU145-TXR (paclitaxel-resistant sub-line of DU145 human prostate cancer cells)
Procedure: DU145-TXR cells were seeded at 350,000 cells per well in 6-well plates in complete RPMI medium. […] A full sample of DAU was also prepared for quantitative analysis. […] Media was removed with a glass vacuum aspirator. Cells were re-suspended and washed in 2mL of ice-cold Hank’s Balanced Salt Solution (HBSS, Gibco), and spun again at 2400 rpm. Cell lysates were diluted in 600 µL of ice-cold HBSS, flash-frozen in liquid nitrogen, and stored at −80 °C until analysis. LC-MS/MS intracellular accumulation assays were performed in collaboration with the Pharmacology Core at the University of Texas Southwestern Medical Center (UTSW). […] This method allowed us to quantify the change – if any – in the relative amount of compound present in the samples when TQR was added. An increase in the relative amount of compound indicates enhanced intracellular retention that compound. […] The “Internal Standard” (IS) is a known substance added in a constant amount to each sample. The “Peak Area”, expressed as “counts”, describes the number of MS/MS spectra from the experimental compound and serves as a measure of its relative abundance. […] These values allow a comparison of the relative abundance of compound between the “- TQR” and “+ TQR” samples, and to test for statistically significant differences. LC-MS/MS quantification was performed as follows. Cell lysate was aliquoted into Eppendorf tubes. In contrast to [9], blank cell lysates were not spiked with varying concentrations of each compound to create a standard curve, since compound amounts were normalized to abundance of the internal standard. […] The supernatant was then transferred to an HPCL vial, and subsequently analyzed using LC-MS/MS using a Sciex 4000QTRAP mass spectrometer coupled to a Shimadzu Prominence LC. […] The column flow rate was 1.5 ml/min using an Agilent C18 XDB, 5 micron packing 50 × 4.6 mm column. […] A BSA standard curve was then prepared in water and mixed using the same ratio. […] The ratio of Analyte to Internal Standard was normalized to the lysate content for each individual sample. […] Statistical significance was determined using a Student’s T Test in GraphPad Prism. We aimed to identify P-gp inhibitors that are not transport substrates of the pump itself. […] To test these predictions in vitro, liquid chromatography with tandem mass spectrometry (LC-MS/MS) was used to assess the intracellular accumulation of experimental compounds as described in [9]. […] The relative intracellular accumulation of each experimental compound was then assessed using LC-MS/MS. […] The P-gp substrate and chemotherapeutic daunorubicin (DAU) was used as a positive control for P-gp-mediated transport.

[4] = DU145-TXR, 5 µM compound, 2.5 h, with 500 nM tariquidar, mean ± SD, triplicate
[5] = DU145-TXR, 5 µM compound, 2.5 h, without tariquidar, mean ± SD, triplicate

T1 sequence (P08183 whole entry): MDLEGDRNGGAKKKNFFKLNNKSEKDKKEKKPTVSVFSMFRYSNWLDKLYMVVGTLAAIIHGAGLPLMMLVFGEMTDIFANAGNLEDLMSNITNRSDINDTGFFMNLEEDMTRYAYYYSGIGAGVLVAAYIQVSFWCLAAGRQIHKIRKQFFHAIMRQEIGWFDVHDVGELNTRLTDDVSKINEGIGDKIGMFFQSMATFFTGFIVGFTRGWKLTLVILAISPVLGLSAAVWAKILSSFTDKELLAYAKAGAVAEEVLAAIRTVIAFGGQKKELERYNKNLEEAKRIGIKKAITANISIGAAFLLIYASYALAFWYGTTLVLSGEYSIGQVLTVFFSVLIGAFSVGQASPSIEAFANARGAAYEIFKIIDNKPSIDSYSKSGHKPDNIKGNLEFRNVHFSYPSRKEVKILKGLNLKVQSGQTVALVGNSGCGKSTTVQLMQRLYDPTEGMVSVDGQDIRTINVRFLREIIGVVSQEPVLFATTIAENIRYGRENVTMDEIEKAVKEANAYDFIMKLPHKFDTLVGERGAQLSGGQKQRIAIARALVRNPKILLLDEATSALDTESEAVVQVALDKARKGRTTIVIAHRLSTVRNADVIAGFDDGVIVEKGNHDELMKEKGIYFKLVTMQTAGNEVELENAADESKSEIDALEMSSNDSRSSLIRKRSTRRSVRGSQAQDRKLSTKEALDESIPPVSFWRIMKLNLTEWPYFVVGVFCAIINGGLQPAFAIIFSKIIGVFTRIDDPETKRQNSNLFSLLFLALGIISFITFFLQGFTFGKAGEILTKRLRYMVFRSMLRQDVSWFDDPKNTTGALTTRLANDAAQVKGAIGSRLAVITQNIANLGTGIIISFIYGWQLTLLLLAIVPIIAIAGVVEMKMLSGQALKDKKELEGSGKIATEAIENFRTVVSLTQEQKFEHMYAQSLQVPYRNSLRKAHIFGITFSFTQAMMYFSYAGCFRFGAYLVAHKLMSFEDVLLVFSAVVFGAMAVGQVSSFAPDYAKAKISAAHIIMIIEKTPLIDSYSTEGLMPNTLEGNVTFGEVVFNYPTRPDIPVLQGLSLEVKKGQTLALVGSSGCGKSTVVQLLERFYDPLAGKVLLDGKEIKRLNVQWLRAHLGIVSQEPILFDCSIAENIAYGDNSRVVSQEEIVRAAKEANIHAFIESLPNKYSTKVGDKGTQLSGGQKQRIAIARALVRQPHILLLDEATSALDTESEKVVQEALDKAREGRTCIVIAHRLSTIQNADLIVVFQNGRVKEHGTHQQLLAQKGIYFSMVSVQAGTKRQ

Structure (SMILES): Nc1nonc1-n1nnc(C(=O)N/N=C/c2c3ccccc3cc3ccccc23)c1COc1ccc(F)cc1 [Compound 60, Nc1nonc1-n1nnc(C(=O)N\N=C\c2c3ccccc3cc3ccccc23)c1COc1ccc(F)cc1]
- Correct Water Solubility Prediction? [1]: No
- viability at 48 h, 15 µM [2]: 88%
- Intracellular accumulation (normalized ratio of compound to internal standard), Trial 1, + TQR [3, 4]: 0.282 ± 0.010
- Intracellular accumulation (normalized ratio of compound to internal standard), Trial 2, + TQR [3, 4]: 0.250 ± 0.003
- Intracellular accumulation (normalized ratio of compound to internal standard), Trial 1, - TQR [3, 5]: 0.231 ± 0.165
- Intracellular accumulation (normalized ratio of compound to internal standard), Trial 2, - TQR [3, 5]: 0.250 ± 0.003
- P (- TQR vs + TQR), Trial 1 ([3]; Student's T test of the mean): 0.6
- P (- TQR vs + TQR), Trial 2 ([3]; Student's T test of the mean): > 1

Structure (SMILES): Cc1onc(-c2ccccc2)c1-c1nnc(Cn2cnc3c(oc4ccccc43)c2=O)o1 [Compound 78, Cc1onc(c1-c1nnc(Cn2cnc3c4ccccc4oc3c2=O)o1)-c1ccccc1]
- Correct Water Solubility Prediction? [1]: Yes
- viability at 48 h, 15 µM [2]: 95.2%
- P-gp transport substrate assessment ([3]; DU145-TXR, 2.5 h): unlikely to be transport substrates of P-gp
- Intracellular accumulation (normalized ratio of compound to internal standard), Trial 1, + TQR [3, 4]: 0.001 ± 0.000
- Intracellular accumulation (normalized ratio of compound to internal standard), Trial 2, + TQR [3, 4]: 0.001 ± 0.000
- Intracellular accumulation (normalized ratio of compound to internal standard), Trial 1, - TQR [3, 5]: 0.001 ± 0.000
- Intracellular accumulation (normalized ratio of compound to internal standard), Trial 2, - TQR [3, 5]: 0.001 ± 0.000

Structure (SMILES): O=C(c1nc(-c2ccc3cc[nH]c3c2)no1)N1CCN(c2nsc3ccccc23)CC1 [Compound 70, O=C(N1CCN(CC1)c1nsc2ccccc12)c1nc(no1)-c1ccc2cc[nH]c2c1]
- Correct Water Solubility Prediction? [1]: Yes
- viability at 48 h, 15 µM [2]: 99.2%
- P-gp transport substrate assessment ([3]; DU145-TXR, 2.5 h): unlikely to be transport substrates of P-gp
- Intracellular accumulation (normalized ratio of compound to internal standard), Trial 1, + TQR [3, 4]: 0.93 ± 0.07
- Intracellular accumulation (normalized ratio of compound to internal standard), Trial 2, + TQR [3, 4]: 0.55 ± 0.15
- Intracellular accumulation (normalized ratio of compound to internal standard), Trial 1, - TQR [3, 5]: 0.93 ± 0.15
- Intracellular accumulation (normalized ratio of compound to internal standard), Trial 2, - TQR [3, 5]: 0.56 ± 0.11
- P (- TQR vs + TQR), Trial 1 ([3]; Student's T test of the mean): > 1
- P (- TQR vs + TQR), Trial 2 ([3]; Student's T test of the mean): 0.9
- Significance of accumulation with tariquidar, Trial 1 [3]: N.S. (P > 0.05 = not significant (N.S.))
- Significance of accumulation with tariquidar, Trial 2 [3]: N.S. (P > 0.05 = not significant (N.S.))

Structure (SMILES): O=S(=O)(Cc1nc2ccccc2n1CC(O)c1ccc(Cl)cc1)c1ccccc1 (centres unmarked) [Compound 97, OC(Cn1c(CS(=O)(=O)c2ccccc2)nc2ccccc12)c1ccc(Cl)cc1]
- Correct Water Solubility Prediction? [1]: Yes
- viability at 48 h, 15 µM [2]: 102%
- P-gp transport substrate assessment ([3]; DU145-TXR, 2.5 h): unlikely to be transport substrates of P-gp
- Intracellular accumulation (normalized ratio of compound to internal standard), Trial 1, + TQR [3, 4]: 0.08 ± 0.03
- Intracellular accumulation (normalized ratio of compound to internal standard), Trial 2, + TQR [3, 4]: 0.10 ± 0.02
- Intracellular accumulation (normalized ratio of compound to internal standard), Trial 1, - TQR [3, 5]: 0.07 ± 0.02
- Intracellular accumulation (normalized ratio of compound to internal standard), Trial 2, - TQR [3, 5]: 0.10 ± 0.02
- P (- TQR vs + TQR), Trial 1 ([3]; Student's T test of the mean): 0.7
- P (- TQR vs + TQR), Trial 2 ([3]; Student's T test of the mean): > 1
- Significance of accumulation with tariquidar, Trial 1 [3]: N.S. (P > 0.05 = not significant (N.S.))
- Significance of accumulation with tariquidar, Trial 2 [3]: N.S. (P > 0.05 = not significant (N.S.))

Structure (SMILES): O=S(=O)(CCSc1nnc(-c2ccccc2)c2ccccc12)c1ccccc1 [Compound 96, O=S(=O)(CCSc1nnc(-c2ccccc2)c2ccccc12)c1ccccc1]
- Correct Water Solubility Prediction? [1]: No
- viability at 48 h, 15 µM [2]: 89.4%
- P-gp transport substrate assessment ([3]; DU145-TXR, 2.5 h): unlikely to be transport substrates of P-gp
- Intracellular accumulation (normalized ratio of compound to internal standard), Trial 1, + TQR [3, 4]: 0.092 ± 0.036
- Intracellular accumulation (normalized ratio of compound to internal standard), Trial 2, + TQR [3, 4]: 0.163 ± 0.032
- Intracellular accumulation (normalized ratio of compound to internal standard), Trial 1, - TQR [3, 5]: 0.087 ± 0.009
- Intracellular accumulation (normalized ratio of compound to internal standard), Trial 2, - TQR [3, 5]: 0.121 ± 0.005
- P (- TQR vs + TQR), Trial 1 ([3]; Student's T test of the mean): 0.8
- P (- TQR vs + TQR), Trial 2 ([3]; Student's T test of the mean): 0.09
- Significance of accumulation with tariquidar, Trial 1 [3]: N.S. (P > 0.05 = not significant (N.S.))
- Significance of accumulation with tariquidar, Trial 2 [3]: N.S. (P > 0.05 = not significant (N.S.))

Structure (SMILES): CCN1CCN(Cc2c(C(=O)N/N=C3/C(=O)N(C)c4ccccc43)nnn2-c2nonc2N)CC1 [Compound 61, CCN1CCN(Cc2c(nnn2-c2nonc2N)C(=O)N\N=C2\C(=O)N(C)c3ccccc23)CC1]
- Correct Water Solubility Prediction? [1]: No
- viability at 48 h, 15 µM [2]: 98.8%
- Intracellular accumulation (normalized ratio of compound to internal standard), Trial 1, + TQR [3, 4]: 0.076 ± 0.001
- Intracellular accumulation (normalized ratio of compound to internal standard), Trial 2, + TQR [3, 4]: 0.027 ± 0.011
- Intracellular accumulation (normalized ratio of compound to internal standard), Trial 3, + TQR [3, 4]: 0.126 ± 0.010
- Intracellular accumulation (normalized ratio of compound to internal standard), Trial 1, - TQR [3, 5]: 0.023 ± 0.002
- Intracellular accumulation (normalized ratio of compound to internal standard), Trial 2, - TQR [3, 5]: 0.016 ± 0.006
- Intracellular accumulation (normalized ratio of compound to internal standard), Trial 3, - TQR [3, 5]: 0.021 ± 0.004
- P (- TQR vs + TQR), Trial 1 ([3]; Student's T test of the mean): 2 x 10^-6
- P (- TQR vs + TQR), Trial 2 ([3]; Student's T test of the mean): 0.2
- P (- TQR vs + TQR), Trial 3 ([3]; Student's T test of the mean): 0.0001
